pIC50: −log10 of the molar value.
How the values were obtained:
Solubility study in PBS = assay type: physicochemical; details: aqueous buffer, thermodynamic from solid; PBS (pH 7.2 to 7.4); read-out: Solubility, concentration
Experimental: The mixture was vortexed for 2 min until the solid was dissolved. The solubility was calculated as: C=m/V, C: concentration, m: sample weight, V: PBS total volume.

A549 = experiment: Expansion inhibition of tumor cells (Example 7, CCK-8); assay type: cell-based; details: Homo sapiens, A549 (no detectable FOLR1 or PSMA expression), 72 h
Experimental: (§1) Samples were serially diluted with medium (serially 5-fold diluted from 10 μM) to 9 concentrations. […] Negative and blank controls were set.
(§2) A CCK-8 developing solution was added at 10 μL/well (10% of the liquid volume in the wells). The plates were incubated at 37° C. for a proper time (the OD value was controlled within the range of 1.0-2.5 as possible). The plate covers were removed, and the 96-well plates were loaded on a microplate reader (Molecular Devices SpectraMax iD5) to read the measurement at 450 nm.

HepG2 = experiment: as above; assay type: cell-based; details: Homo sapiens, HepG2 (no detectable FOLR1 or PSMA expression), 72 h
Experimental: as §1, §2

NCI-H460 = experiment: as above; assay type: cell-based; details: Homo sapiens, NCI-H460 (no detectable FOLR1 or PSMA expression), 72 h
Experimental: as §1, §2

PC-3 = experiment: as above; assay type: cell-based; details: Homo sapiens, PC-3 (no detectable FOLR1 or PSMA expression), 72 h
Experimental: as §1, §2

[1] = tested on: human liver cancer HepG2 cell subcutaneous xenograft tumor; experiment: Pharmacodynamic assessment, HepG2 xenograft model; assay type: in vivo, BALB/c nude mouse; details: 4 mg/kg iv biw×3, day 36 after grouping
Experimental: Objective: Pre-clinical assessment of the efficacy of CR202 series of compounds in BALB/c nude mouse model with human liver cancer HepG2 cell subcutaneous xenograft tumor with no FOLR1 or PSMA receptor expression.
Procedures: 0.1 mL (10×10^6 cells) of HepG2 cells was subcutaneously inoculated on the right back of each mouse, and the mice were randomized into a modeling control group and treatment groups after the mean tumor volume was approximately 100-150 mm^3. The treatment was started on the first day of grouping. Before the start of administration, the animals were weighed, and the tumor volume was measured with a vernier caliper. After the grafting of tumor cells, the routine monitoring included the effect on tumor growth and the effect of treatment on the normal behavior of the animals, specifically the activity, food and water intake, weight gain or loss, the eyes, the hair, and other abnormal conditions. After the administration was started, the body weight and tumor size of the mice were measured periodically. The calculation formula for tumor volume: Tumor volume V (mm^3)=1/2×(a×b^2) (where a denotes the long diameter and b notes the short diameter). The calculation formula for the tumor growth inhibition, TGI (%), is TGI %=(1−T/C)×100% (T and C are the mean tumor volume of the treatment group and control group, respectively, at a particular time point).

[2] = tested on: human prostate cancer 22RV1 cell subcutaneous xenograft tumor; experiment: Pharmacodynamic assessment, 22RV1 xenograft model; assay type: in vivo; details: 4 mg/kg iv biw×3, day 31 after grouping
Text: Objective: Pre-clinical pharmacodynamic study of compounds for treating BALB/c nude mouse model with 22RV1 cell subcutaneous xenograft tumor (overexpressing PSMA).
Procedures: 22RV1 tumor mass was grafted subcutaneously at the right back of the mice, and the mice were randomized after the mean tumor volume was 150 mm^3. After administration, the animals were monitored daily for health conditions and death, and the routine examinations included observation of the effect on tumor growth and the effect of the treatment on the daily performance of the animals, such as behavioral activities, food and water intake, weight changes (measured once every other day), appearance, or other abnormal conditions. Whether the tumor growth was inhibited or delayed or the tumor was cured was also observed. The tumor volume was measured periodically. The tumor volume was calculated using the following formula: V=1/2×(a×b^2), where a and b denote the long diameter and short diameter of the tumor, respectively.

[3] = tested on: human prostate cancer C4-2 cell subcutaneous xenograft tumor; experiment: Pharmacodynamic assessment, C4-2 xenograft model; assay type: in vivo, NCG mouse; details: 4 mg/kg i.v biw×3, day 23 after grouping
Text: Objective: Pre-clinical assessment of the efficacy of compounds for treating NCG mouse model with C4-2 cell subcutaneous xenograft tumor (overexpressing PSMA).
(§3) Procedures: C4-2 cells were subcutaneously grafted at the right back of the mice, and the mice were randomized when the mean tumor volume reached 100-150 mm^3. After the administration, the routine monitoring included the effect on tumor growth and the effect of treatment on the normal behavior of the animals, specifically the activity, food and water intake, weight gain or loss, the eyes, the hair, and other abnormal conditions. Clinical symptoms observed during the study were recorded in the raw data. After the administration was started, the body weight and tumor size of the mice were measured periodically. The tumor volume was calculated using the following formula: V=1/2×(a×b^2), where a and b denote the long diameter and short diameter of the tumor, respectively.

[4] = tested on: HT-29 cell subcutaneous xenograft tumor; experiment: Pharmacodynamic assessment, HT-29 xenograft model; assay type: in vivo, BALB/c nude mouse
Text: Objective: Pre-clinical assessment of the efficacy of CR202 series of compounds for treating BALB/c nude mouse model with HT-29 cell subcutaneous xenograft tumor.
as §3, with “HT-29” for “C4-2”

[5] = Single-dose PK assessment, tumor concentration in HT-29 xenograft mice; assay type: in vivo, BALB/c nude male mouse; details: 2 mg/kg CR20274 single tail vein injection, 5 min
[6] = 2 mg/kg i.v BIW×3, day 25 after grouping
[7] = 4 mg/kg i.v BIW×3, day 25 after grouping

For `CC[C@@H]1C(=O)N(C)c2cnc(Nc3ccc(-c4cn([C@H]5CC[C@@H](NCCOCCC#Cc6cccc7c6CN(C6CCC(=O)NC6=O)C7=O)CC5)nn4)cc3OC)nc2N1C1CCCC1` (stereo partly shown) [CR20274], the solubility at 2 min (Solubility study in PBS) was < 900 µg/mL, the pIC50 (A549) was 6.91 and the pIC50 (HepG2) was 6.97. It also gave a pIC50 (NCI-H460) of 6.50, a pIC50 (PC-3) of 6.99 and a Mean tumor volume [1] of 1329.84 mm^3. For the same compound, the TGI [1] was 22.99%, the Mean tumor volume [2] was 1274.47 mm^3 and the TGI [2] was 31.55%. The Mean tumor volume [3] was 2198.07 mm^3, the TGI [3] was −25.70% and the Mean tumor volume [4, 6] was 1575.84 mm^3. It also gave a TGI [4, 6] of 24.23%, a Mean tumor volume [4, 7] of 1316.64 mm^3 and a TGI [4, 7] of 36.69%. For the same compound, the “Concentration of CR20274 in tumors (C2)” value [5] was 0.227 nmol/g.

From patent US20260007756A1, “COMPOUND AND USE THEREOF” (COHERENT BIOPHARMA (SUZHOU) LIMITED, priority 2022, published 2026)
